Source: ChEMBL document CHEMBL4376803, “Recent Advances in the Exploration of Therapeutic Analogues of Gramicidin S, an Old but Still Potent Antimicrobial Peptide” (J Med Chem, 2019)
In brackets after ≈: the same amount, converted by molar mass. Square brackets hold non-standard residues; d marks the D form. Peptide text beside a SMILES is read from it.

Legend:
[1] = Therapeutic index, ratio of HD100 for hemolytic activity in human RBC to MIC against Enterococcus faecalis; assay type: toxicity; conditions: human red blood cells, read-out: TI
Enterococcus faecalis = test: Antibacterial activity against Enterococcus faecalis after 24 hrs by microtitre dilution method; assay type: functional
Candida albicans = test: Antibacterial activity against Candida albicans after 24 hrs by microtitre dilution method; assay type: functional
Staphylococcus aureus = test: Antibacterial activity against Staphylococcus aureus after 24 hrs by microtitre dilution method; assay type: functional
[2] = Therapeutic index, ratio of HD100 for hemolytic activity in human erythrocytes to MIC against Escherichia coli; assay type: toxicity, cell-based; conditions: read-out: TI
Pseudomonas aeruginosa = test: Antibacterial activity against Pseudomonas aeruginosa after 24 hrs by microtitre dilution method; assay type: functional
[3] = Therapeutic index, ratio of HD100 for hemolytic activity in human erythrocytes to MIC against Pseudomonas aeruginosa; assay type: toxicity, cell-based; conditions: read-out: TI
[4] = Therapeutic index, ratio of HD100 for hemolytic activity in human RBC to MIC against Staphylococcus aureus; assay type: toxicity; conditions: human red blood cells, read-out: TI
Escherichia coli = test: Antibacterial activity against Escherichia coli after 24 hrs by microtitre dilution method; assay type: functional

MIC (Enterococcus faecalis): 4 µg/mL (≈ 2.08 µM) | MIC (Candida albicans): 16 µg/mL (≈ 8.31 µM) | MIC (Staphylococcus aureus): 8 µg/mL (≈ 4.15 µM) | MIC (Pseudomonas aeruginosa): 64 µg/mL (≈ 33.2 µM) | MIC (Escherichia coli): 4 µg/mL (≈ 2.08 µM)
Compound: CC(C)C[C@@H]1NC(=O)[C@H](CCCCN)NC(=O)[C@H](C(C)C)NC(=O)[C@@H]2CCCN2C(=O)[C@@H](Cc2ccc(O)cc2)NC(=O)[C@H](CC(C)C)NC(=O)[C@H](CCCCN)NC(=O)[C@H](C(C)C)NC(=O)[C@H](CCCCN)NC(=O)[C@H](CC(C)C)NC(=O)[C@H](CCCCN)NC(=O)[C@@H]2CCCN2C(=O)[C@@H](Cc2ccc(O)cc2)NC(=O)[C@H](CCCCN)NC(=O)[C@H](C(C)C)NC(=O)[C@H](CCCCN)NC1=O (cyclo(VKLKVK[dY]PKLKVKL[dY]P))
selectivity ratio [1]: > 50 | selectivity ratio [2]: > 50 | selectivity ratio [3]: > 3.1 | selectivity ratio [4]: > 25
